Laboratory results taken from US20240067632A1, “WEE1 Degrading Compounds and Uses Thereof” (Bristol-Myers Squibb Company, priority 2022, published 2024).
Like-named read-outs stand apart in the source and are kept apart here.

Tests used:
WEE1 = biological target: T1, WEE1 (Homo sapiens, UniProt P30291+Q96SW2); assay: WEE1-ePL degradation assay (LentiX-WEE1-ePL-GSPT1-ND cells, InCELL Hunter luminescence, 4 h); assay type: cell-based; conditions: 293T-LentiX WEE1-ePL cells; for DC50: read-out: 293T-LentiX WEE1-ePL Degradation 4 hr (EC50)
T1 construct: C-terminal ePL-tagged (DiscoverX, Fremont, CA) full-length WEE1 expression construct; expressed in transfected cells; host or cells: LentiX-HEK293T (Invitrogen), lentiviral transduction; co-expressing GSPT1-GN (G576N, lacking the first 158 amino acids)
How it was run: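 LentiX-HEK293T cells stably expressing C-terminally ePL-tagged full-length WEE1 were treated with compounds in a 10-point, 3-fold dilution series starting at 1 uM or 10 uM for 4 h at 37 °C. Remaining WEE1-ePL was detected by InCELL Hunter luminescence, and EC50, Ymin and Ymax came from a four-parameter logistic fit against DMSO control.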

MKN45 cells = assay: MKN45 cell proliferation assay (Cell-Titer-Glo, 120 h); assay type: cell-based; conditions: for EC50: Homo sapiens, MKN-45, 120 h, Cell-Titer-Glo, read-out: MKN45 Cell Prolif. 120 hr (EC50); for MKN45 Cell Prolif. 120 hr (Ymin-Obs): minimal percent of DMSO control observed in the concentrations tested
How it was run: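 Cells seeded at 400/well onto pre-printed 10-point half-log dilutions (top 1 or 10 uM, 0.1% DMSO final), in triplicate, and grown 120 h at 37 C. Viability by Cell-Titer-Glo luminescence, blank-subtracted and normalised to DMSO; EC50 from four-parameter logistic fit, with observed minimal % of control recorded as Ymin-obs.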

[1] = lower limit of the fit (Ymin=0 luciferase inhibitor, Ymax DMSO control)

SMILES | 293T-LentiX WEE1-ePL Degradation 4 hr (Ymin) (WEE1; [1]) | DC50 (WEE1) | EC50 (MKN45 cells) | MKN45 Cell Prolif. 120 hr (Ymin-Obs) (MKN45 cells) | 293T-LentiX WEE1-ePL Degradation 4 hr (Ymin) (WEE1; lower limit of the fit (0 = luciferase inhibitor, Ymax = DMSO control)) | EC50 (MKN45 cells; growth inhibition)
O=C1CC[C@H](N2Cc3cc(O[C@@H]4CN(Cc5ccc6nc(C7CCOCC7)ncc6c5)CC4(F)F)ccc3C2=O)C(=O)N1 [(3S)-3-(5-{[(3R)-4,4-difluoro-1-{[2-(oxan-4-yl)quinazolin-6-yl]methyl}pyrrolidin-3-yl]oxy}-1-oxo-2,3-dihydro-1H-isoindol-2-yl)piperidine-2,6-dione] | 22.61 | 105 nM | 45.8 nM | 10.37 |  | 
O=C1CC[C@H](N2Cc3cc(O[C@@H]4CN(Cc5cc6ccc(C7CCOCC7)cc6cn5)CC4(F)F)ccc3C2=O)C(=O)N1 [(3S)-3-(5-{[(3R)-4,4-difluoro-1-{[7-(oxan-4-yl)isoquinolin-3-yl]methyl}pyrrolidin-3-yl]oxy}-1-oxo-2,3-dihydro-1H-isoindol-2-yl)piperidine-2,6-dione] | 26.77 | 2.76 nM | 2.17 nM | 9.546 |  | 
CC1(C)C[C@H](c2ncc3cc(CN4CC[C@H](Oc5ccc6c(c5)CN([C@H]5CCC(=O)NC5=O)C6=O)C4)ccc3n2)CCO1 [(3S)-3-(5-{[(3S)-1-({2-[(4R)-2,2-dimethyloxan-4-yl]quinazolin-6-yl}methyl)pyrrolidin-3-yl]oxy}-1-oxo-2,3-dihydro-1H-isoindol-2-yl)piperidine-2,6-dione] | 29.31 | 32.3 nM | 15.5 nM | 11.79 |  | 
CC1(C)C[C@H](c2ccc3cc(CN4CC[C@H](Oc5ccc6c(c5)CN([C@H]5CCC(=O)NC5=O)C6=O)C4)ccc3n2)CCO1 [(3S)-3-(5-{[(3S)-1-({2-[(4R)-2,2-dimethyloxan-4-yl]quinolin-6-yl}methyl)pyrrolidin-3-yl]oxy}-1-oxo-2,3-dihydro-1H-isoindol-2-yl)piperidine-2,6-dione] | 26.67 | 1.85 nM | 1.83 nM | 11.19 |  | 
CC1(C)C[C@@H](c2ccc3cc(CN4CC[C@H](Oc5ccc6c(c5)CN([C@H]5CCC(=O)NC5=O)C6=O)C4)cc(F)c3n2)CCO1 [(3S)-3-(5-{[(3S)-1-({2-[(4S)-2,2-dimethyloxan-4-yl]-8-fluoroquinolin-6-yl}methyl)pyrrolidin-3-yl]oxy}-1-oxo-2,3-dihydro-1H-isoindol-2-yl)piperidine-2,6-dione] | 28.17 | 3.8 nM | 1.64 nM | 9.621 |  | 
CC1(C)C[C@@H](c2ncc3cc(CN4CC[C@H](Oc5ccc6c(c5)CN([C@H]5CCC(=O)NC5=O)C6=O)C4)ccc3n2)CCO1 [(3S)-3-(5-{[(3S)-1-({2-[(4S)-2,2-dimethyloxan-4-yl]quinazolin-6-yl}methyl)pyrrolidin-3-yl]oxy}-1-oxo-2,3-dihydro-1H-isoindol-2-yl)piperidine-2,6-dione] | 26.33 | 24.9 nM | 7.77 nM | 8.718 |  | 
CC1(C)C[C@@H](c2ccc3cc(CN4CC[C@H](Oc5ccc6c(c5)CN([C@H]5CCC(=O)NC5=O)C6=O)C4)ccc3n2)CCO1 [(3S)-3-(5-{[(3S)-1-({2-[(4S)-2,2-dimethyloxan-4-yl]quinolin-6-yl}methyl)pyrrolidin-3-yl]oxy}-1-oxo-2,3-dihydro-1H-isoindol-2-yl)piperidine-2,6-dione] | 24.69 | 1.77 nM | 1.34 nM | 9.025 |  | 
CC1(C)C[C@H](c2ccc3cc(CN4CC[C@H](Oc5ccc6c(c5)CN([C@H]5CCC(=O)NC5=O)C6=O)C4)ncc3c2)CCO1 [(3S)-3-(5-{[(3S)-1-({7-[(4R)-2,2-dimethyloxan-4-yl]isoquinolin-3-yl}methyl)pyrrolidin-3-yl]oxy}-1-oxo-2,3-dihydro-1H-isoindol-2-yl)piperidine-2,6-dione] | 24.44 | 1.09 nM | 0.593 nM | 9.482 |  | 
CC1(C)C[C@@H](c2ccc3cc(CN4CC[C@H](Oc5ccc6c(c5)CN([C@H]5CCC(=O)NC5=O)C6=O)C4)ncc3c2)CCO1 [(3S)-3-(5-{[(3S)-1-({7-[(4S)-2,2-dimethyloxan-4-yl]isoquinolin-3-yl}methyl)pyrrolidin-3-yl]oxy}-1-oxo-2,3-dihydro-1H-isoindol-2-yl)piperidine-2,6-dione] | 26.79 | 1.19 nM | 1.11 nM | 9.866 |  | 
O=C1CC[C@H](N2Cc3cc(O[C@H]4CCN(Cc5cc(F)c6nc([C@H]7CCOC7)ccc6c5)C4)ccc3C2=O)C(=O)N1 [(3S)-3-(5-{[(3S)-1-({8-fluoro-2-[(3R)-oxolan-3-yl]quinolin-6-yl}methyl)pyrrolidin-3-yl]oxy}-1-oxo-2,3-dihydro-1H-isoindol-2-yl)piperidine-2,6-dione] | 34.39 | 1.34 nM | 1.02 nM | 9.528 |  | 
O=C1CC[C@H](N2Cc3cc(O[C@H]4CCN(Cc5cc(F)c6nc([C@@H]7CCOC7)ccc6c5)C4)ccc3C2=O)C(=O)N1 [(3S)-3-(5-{[(3S)-1-({8-fluoro-2-[(3S)-oxolan-3-yl]quinolin-6-yl}methyl)pyrrolidin-3-yl]oxy}-1-oxo-2,3-dihydro-1H-isoindol-2-yl)piperidine-2,6-dione] | 34.19 | 1.73 nM | 1.45 nM | 9.273 |  | 
CC(=O)N1CCC(c2ncc3cc(CN4CC[C@H](Oc5ccc6c(c5)CN([C@H]5CCC(=O)NC5=O)C6=O)C4)ccc3n2)CC1 [(3S)-3-(5-{[(3S)-1-{[2-(1-acetylpiperidin-4-yl)quinazolin-6-yl]methyl}pyrrolidin-3-yl]oxy}-1-oxo-2,3-dihydro-1H-isoindol-2-yl)piperidine-2,6-dione] | 36.09 | 35.8 nM | 13.8 nM | 9.035 |  | 
CC(=O)N1CCC(c2ccc3cc(CN4CC[C@H](Oc5ccc6c(c5)CN([C@H]5CCC(=O)NC5=O)C6=O)C4)ccc3n2)CC1 [(3S)-3-(5-{[(3S)-1-{[2-(1-acetylpiperidin-4-yl)quinolin-6-yl]methyl}pyrrolidin-3-yl]oxy}-1-oxo-2,3-dihydro-1H-isoindol-2-yl)piperidine-2,6-dione] | 36.62 | 10.1 nM | 11.8 nM | 10.38 |  | 
CC(C)(O)c1ccc2cc(CN3CC[C@H](Oc4ccc5c(c4)CN([C@H]4CCC(=O)NC4=O)C5=O)C3)ccc2n1 [(3S)-3-(5-{[(3S)-1-{[2-(2-hydroxypropan-2-yl)quinolin-6-yl]methyl}pyrrolidin-3-yl]oxy}-1-oxo-2,3-dihydro-1H-isoindol-2-yl)piperidine-2,6-dione] |  | 1.69 nM |  | 12.89 | 33.92 | 10.1 nM
CC(=O)N1CCN(c2ncc3cc(CN4CC[C@H](Oc5ccc6c(c5)CN([C@H]5CCC(=O)NC5=O)C6=O)C4)ccc3n2)CC1 [(3S)-3-(5-{[(3S)-1-{[2-(4-acetylpiperazin-1-yl)quinazolin-6-yl]methyl}pyrrolidin-3-yl]oxy}-1-oxo-2,3-dihydro-1H-isoindol-2-yl)piperidine-2,6-dione] | 39.39 | 9.27 nM | 8.63 nM | 9.801 |  | 
CC(=O)N1CCN(c2ccc3cc(CN4CC[C@H](Oc5ccc6c(c5)CN([C@H]5CCC(=O)NC5=O)C6=O)C4)ccc3n2)CC1 [(3S)-3-(5-{[(3S)-1-{[2-(4-acetylpiperazin-1-yl)quinolin-6-yl]methyl}pyrrolidin-3-yl]oxy}-1-oxo-2,3-dihydro-1H-isoindol-2-yl)piperidine-2,6-dione] | 40.44 | 1.69 nM | 9.94 nM | 17.95 |  | 
CN1CCN(c2ncc3cc(CN4CC[C@H](Oc5ccc6c(c5)CN([C@H]5CCC(=O)NC5=O)C6=O)C4)ccc3n2)CC1 [(3S)-3-(5-{[(3S)-1-{[2-(4-methylpiperazin-1-yl)quinazolin-6-yl]methyl}pyrrolidin-3-yl]oxy}-1-oxo-2,3-dihydro-1H-isoindol-2-yl)piperidine-2,6-dione] | 37.97 | 11.1 nM | 15.2 nM | 12.23 |  | 
O=C1CC[C@H](N2Cc3cc(O[C@H]4CCN(Cc5ccc6nc(N7CCC7)ncc6c5)C4)ccc3C2=O)C(=O)N1 [(3S)-3-(5-{[(3S)-1-{[2-(azetidin-1-yl)quinazolin-6-yl]methyl}pyrrolidin-3-yl]oxy}-1-oxo-2,3-dihydro-1H-isoindol-2-yl)piperidine-2,6-dione] | 45.2 | 12.1 nM | 33.8 nM | 31.75 |  | 
